{"source": "patent US20150105252A1", "about": "“SUBSTITUTED PYRAZOLES AS HERBICIDES” (E I DU PONT DE NEMOURS AND COMPANY, priority 2013, published 2015)", "key": {"[1]": {"test_system": "wheat", "test": "Test A preemergence", "format": "in vivo, Triticum aestivum", "conditions": "preemergence; for Wheat plant response rating (0 to 100 scale): 125 g ai/ha, visual injury approx. 10 days after treatment; for Wheat plant response rating: 500 g ai/ha, visual injury after approx. 10 days, 0 to 100 scale (0 no effect, 100 complete control)", "procedure,_shortened": "(§1)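 Visual injury ratings, 0 = no effect to 100 = complete control, taken about 10 days after treatment against untreated controls. Test chemicals, in a non-phytotoxic surfactant-containing solvent, were sprayed onto soil preemergence or onto one- to two-leaf plants (2–10 cm) postemergence, in loam–sand soil under greenhouse conditions.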"}, "[2]": {"test_system": "pigweed", "test": "Test A preemergence", "format": "in vivo, Amaranthus retroflexus", "conditions": "preemergence; for Pigweed plant response rating (0 to 100 scale): 125 g ai/ha, visual injury approx. 10 days after treatment; for Pigweed plant response rating: 500 g ai/ha, visual injury after approx. 10 days, 0 to 100 scale (0 no effect, 100 complete control)", "procedure,_shortened": "as §1"}, "[3]": {"test_system": "barnyardgrass", "test": "Test B flood", "format": "in vivo, Echinochloa crus-galli", "conditions": "250 g ai/ha, visual rating on 0 to 100 scale (0 no effect, 100 complete control), 13 to 15 days", "procedure,_shortened": "(§2)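 Response scored visually, 0–100 relative to controls, 13–15 days after the compound was applied into paddy water; plants were at the 2-leaf stage in pots kept flooded to 3 cm.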"}, "[4]": {"test_system": "barnyardgrass", "test": "Test A postemergence", "format": "in vivo, Echinochloa crus-galli", "procedure,_shortened": "as §1"}, "[5]": {"test_system": "corn", "test": "Test A preemergence", "format": "in vivo, Zea mays", "conditions": "preemergence; for Corn plant response rating (0 to 100 scale): 125 g ai/ha, visual injury approx. 10 days after treatment; for Corn plant response rating: 500 g ai/ha, visual injury after approx. 10 days, 0 to 100 scale (0 no effect, 100 complete control)", "procedure,_shortened": "as §1"}, "[6]": {"test_system": "barnyardgrass", "test": "Test A preemergence", "format": "in vivo, Echinochloa crus-galli", "conditions": "preemergence", "procedure,_shortened": "as §1"}, "[7]": {"test_system": "morningglory", "test": "Test A preemergence", "format": "in vivo, Ipomoea spp.", "conditions": "preemergence; for Morningglory plant response rating (0 to 100 scale): 125 g ai/ha, visual injury approx. 10 days after treatment; for Morningglory plant response rating: 500 g ai/ha, visual injury after approx. 10 days, 0 to 100 scale (0 no effect, 100 complete control)", "procedure,_shortened": "as §1"}, "[8]": {"test_system": "corn", "test": "Test A postemergence", "format": "in vivo, Zea mays", "procedure,_shortened": "as §1"}, "[9]": {"test_system": "crabgrass, large", "test": "Test A preemergence", "format": "in vivo, Digitaria sanguinalis", "conditions": "preemergence; for Crabgrass, Large plant response rating (0 to 100 scale): 125 g ai/ha, visual injury approx. 10 days after treatment; for Crabgrass, Large plant response rating: 500 g ai/ha, visual injury after approx. 10 days, 0 to 100 scale (0 no effect, 100 complete control)", "procedure,_shortened": "as §1"}, "[10]": {"test_system": "velvetleaf", "test": "Test A preemergence", "format": "in vivo, Abutilon theophrasti", "conditions": "preemergence; for Velvetleaf plant response rating (0 to 100 scale): 125 g ai/ha, visual injury approx. 10 days after treatment; for Velvetleaf plant response rating: 500 g ai/ha, visual injury after approx. 10 days, 0 to 100 scale (0 no effect, 100 complete control)", "procedure,_shortened": "as §1"}, "[11]": {"test_system": "wheat", "test": "Test A postemergence", "format": "in vivo, Triticum aestivum", "procedure,_shortened": "as §1"}, "[12]": {"test_system": "sedge, umbrella", "test": "Test B flood", "format": "in vivo, Cyperus difformis", "conditions": "250 g ai/ha, visual rating on 0 to 100 scale (0 no effect, 100 complete control), 13 to 15 days", "procedure,_shortened": "as §2"}, "[13]": {"test_system": "rice", "test": "Test B flood", "format": "in vivo, Oryza sativa", "conditions": "250 g ai/ha, visual rating on 0 to 100 scale (0 no effect, 100 complete control), 13 to 15 days", "procedure,_shortened": "as §2"}, "[14]": {"test_system": "pigweed", "test": "Test A postemergence", "format": "in vivo, Amaranthus retroflexus", "procedure,_shortened": "as §1"}, "[15]": {"test_system": "morningglory", "test": "Test A postemergence", "format": "in vivo, Ipomoea spp.", "procedure,_shortened": "as §1"}, "[16]": {"test_system": "ducksalad", "test": "Test B flood", "format": "in vivo, Heteranthera limosa", "conditions": "250 g ai/ha, visual rating on 0 to 100 scale (0 no effect, 100 complete control), 13 to 15 days", "procedure,_shortened": "as §2"}, "[17]": {"test_system": "foxtail, giant", "test": "Test A postemergence", "format": "in vivo, Setaria faberii", "procedure,_shortened": "as §1"}, "[18]": {"test_system": "crabgrass, large", "test": "Test A postemergence", "format": "in vivo, Digitaria sanguinalis", "procedure,_shortened": "as §1"}, "[19]": {"test_system": "velvetleaf", "test": "Test A postemergence", "format": "in vivo, Abutilon theophrasti", "procedure,_shortened": "as §1"}, "[20]": {"test_system": "foxtail, giant", "test": "Test A preemergence", "format": "in vivo, Setaria faberii", "conditions": "preemergence; for Foxtail, Giant plant response rating (0 to 100 scale): 125 g ai/ha, visual injury approx. 10 days after treatment; for Foxtail, Giant plant response rating: 500 g ai/ha, visual injury after approx. 10 days, 0 to 100 scale (0 no effect, 100 complete control)", "procedure,_shortened": "as §1"}, "[21]": {"conditions": "Postemergence, 500 g ai/ha, 0 to 100 scale (0 no effect, 100 complete control)"}, "[22]": {"conditions": "postemergence, 125 g ai/ha, about 10 days, visual rating on 0 to 100 scale (0 no effect, 100 complete control)"}, "[23]": {"conditions": "125 g ai/ha, visual injury, 0 to 100 scale, approx. 10 days"}, "[24]": {"conditions": "500 g ai/ha, visual injury after approx. 10 days, 0 to 100 scale (0 no effect, 100 complete control)"}}}
{"compound": "CCCCNC(=O)c1cc(Cl)n(Cc2cccc(C(F)(F)F)c2)n1", "note": "[Compound 171]", "values": [{"measurement": "Wheat plant response rating (0 to 100 scale)", "setting": "[1]", "value": 0}, {"measurement": "Wheat plant response rating", "setting": "[1]", "value": 0}, {"measurement": "Pigweed plant response rating (0 to 100 scale)", "setting": "[2]", "value": 0}, {"measurement": "Pigweed plant response rating", "setting": "[2]", "value": 0}, {"measurement": "Plant response rating, Barnyardgrass", "setting": "[3]", "value": 0}, {"measurement": "Barnyardgrass plant response rating", "setting": "[4]; [21]", "value": 20}, {"measurement": "Barnyardgrass plant response rating", "setting": "[4]; [22]", "value": 0}, {"measurement": "Corn plant response rating (0 to 100 scale)", "setting": "[5]", "value": 0}, {"measurement": "Corn plant response rating", "setting": "[5]", "value": 0}, {"measurement": "Barnyardgrass plant response rating", "setting": "[6]; [23]", "value": 0}, {"measurement": "Barnyardgrass plant response rating", "setting": "[6]; [24]", "value": 0}, {"measurement": "Morningglory plant response rating (0 to 100 scale)", "setting": "[7]", "value": 0}, {"measurement": "Morningglory plant response rating", "setting": "[7]", "value": 0}, {"measurement": "Corn plant response rating", "setting": "[8]; [21]", "value": 20}, {"measurement": "Corn plant response rating", "setting": "[8]; [22]", "value": 0}, {"measurement": "Crabgrass, Large plant response rating (0 to 100 scale)", "setting": "[9]", "value": 0}, {"measurement": "Crabgrass, Large plant response rating", "setting": "[9]", "value": 0}, {"measurement": "Velvetleaf plant response rating (0 to 100 scale)", "setting": "[10]", "value": 0}, {"measurement": "Velvetleaf plant response rating", "setting": "[10]", "value": 0}, {"measurement": "Wheat plant response rating", "setting": "[11]; [21]", "value": 0}, {"measurement": "Wheat plant response rating", "setting": "[11]; [22]", "value": 0}, {"measurement": "Plant response rating, Sedge, Umbrella", "setting": "[12]", "value": 0}, {"measurement": "Plant response rating, Rice", "setting": "[13]", "value": 0}, {"measurement": "Pigweed plant response rating", "setting": "[14]; [21]", "value": 50}, {"measurement": "Pigweed plant response rating", "setting": "[14]; [22]", "value": 20}, {"measurement": "Morningglory plant response rating", "setting": "[15]; [21]", "value": 30}, {"measurement": "Morningglory plant response rating", "setting": "[15]; [22]", "value": 0}, {"measurement": "Plant response rating, Ducksalad", "setting": "[16]", "value": 0}, {"measurement": "Foxtail, Giant plant response rating", "setting": "[17]; [21]", "value": 20}, {"measurement": "Foxtail, Giant plant response rating", "setting": "[17]; [22]", "value": 10}, {"measurement": "Crabgrass, Large plant response rating", "setting": "[18]; [21]", "value": 30}, {"measurement": "Crabgrass, Large plant response rating", "setting": "[18]; [22]", "value": 10}, {"measurement": "Velvetleaf plant response rating", "setting": "[19]; [21]", "value": 30}, {"measurement": "Velvetleaf plant response rating", "setting": "[19]; [22]", "value": 20}, {"measurement": "Foxtail, Giant plant response rating (0 to 100 scale)", "setting": "[20]", "value": 0}, {"measurement": "Foxtail, Giant plant response rating", "setting": "[20]", "value": 0}]}
{"compound": "O=C(NC1CC1)c1cc(Br)n(Cc2cccc(C(F)(F)F)c2)n1", "note": "[Compound 160]", "values": [{"measurement": "Wheat plant response rating (0 to 100 scale)", "setting": "[1]", "value": 0}, {"measurement": "Wheat plant response rating", "setting": "[1]", "value": 0}, {"measurement": "Pigweed plant response rating (0 to 100 scale)", "setting": "[2]", "value": 50}, {"measurement": "Pigweed plant response rating", "setting": "[2]", "value": 90}, {"measurement": "Plant response rating, Barnyardgrass", "setting": "[3]", "value": 0}, {"measurement": "Barnyardgrass plant response rating", "setting": "[4]; [21]", "value": 30}, {"measurement": "Barnyardgrass plant response rating", "setting": "[4]; [22]", "value": 0}, {"measurement": "Corn plant response rating (0 to 100 scale)", "setting": "[5]", "value": 0}, {"measurement": "Corn plant response rating", "setting": "[5]", "value": 0}, {"measurement": "Barnyardgrass plant response rating", "setting": "[6]; [23]", "value": 0}, {"measurement": "Barnyardgrass plant response rating", "setting": "[6]; [24]", "value": 10}, {"measurement": "Morningglory plant response rating (0 to 100 scale)", "setting": "[7]", "value": 0}, {"measurement": "Morningglory plant response rating", "setting": "[7]", "value": 0}, {"measurement": "Corn plant response rating", "setting": "[8]; [21]", "value": 20}, {"measurement": "Corn plant response rating", "setting": "[8]; [22]", "value": 0}, {"measurement": "Crabgrass, Large plant response rating (0 to 100 scale)", "setting": "[9]", "value": 50}, {"measurement": "Crabgrass, Large plant response rating", "setting": "[9]", "value": 90}, {"measurement": "Velvetleaf plant response rating (0 to 100 scale)", "setting": "[10]", "value": 0}, {"measurement": "Velvetleaf plant response rating", "setting": "[10]", "value": 10}, {"measurement": "Wheat plant response rating", "setting": "[11]; [21]", "value": 0}, {"measurement": "Wheat plant response rating", "setting": "[11]; [22]", "value": 0}, {"measurement": "Plant response rating, Sedge, Umbrella", "setting": "[12]", "value": 0}, {"measurement": "Plant response rating, Rice", "setting": "[13]", "value": 0}, {"measurement": "Pigweed plant response rating", "setting": "[14]; [21]", "value": 80}, {"measurement": "Pigweed plant response rating", "setting": "[14]; [22]", "value": 50}, {"measurement": "Morningglory plant response rating", "setting": "[15]; [21]", "value": 20}, {"measurement": "Morningglory plant response rating", "setting": "[15]; [22]", "value": 0}, {"measurement": "Plant response rating, Ducksalad", "setting": "[16]", "value": 0}, {"measurement": "Foxtail, Giant plant response rating", "setting": "[17]; [21]", "value": 30}, {"measurement": "Foxtail, Giant plant response rating", "setting": "[17]; [22]", "value": 20}, {"measurement": "Crabgrass, Large plant response rating", "setting": "[18]; [21]", "value": 40}, {"measurement": "Crabgrass, Large plant response rating", "setting": "[18]; [22]", "value": 20}, {"measurement": "Velvetleaf plant response rating", "setting": "[19]; [21]", "value": 60}, {"measurement": "Velvetleaf plant response rating", "setting": "[19]; [22]", "value": 30}, {"measurement": "Foxtail, Giant plant response rating (0 to 100 scale)", "setting": "[20]", "value": 0}, {"measurement": "Foxtail, Giant plant response rating", "setting": "[20]", "value": 60}]}
